Source: ChEMBL document CHEMBL1140123, “Whole structure-activity relationships of the fat-accumulation inhibitor (-)-ternatin: recognition of the importance of each amino acid residue” (J Med Chem, 2008)

What was measured:
[1] = Toxicity in mouse 3T3L1 cells; format: cell-based; settings: 3T3-L1 cells
[2] = system: 3T3-L1; experiment: Inhibition of fat accumulation in mouse 3T3L1 cells assessed as liberated triglyceride after 7 days; format: functional, cell-based; settings: 3T3-L1, 168 h
[3] = system: 3T3-L1; experiment: Inhibition of fat accumulation in mouse 3T3L1 cells assessed as liberated triglyceride after 7 days relative to (-)-ternatin; format: functional

Work on CCCCCC[C@H]1NC(=O)[C@@H]([C@H](O)C(C)C)NC(=O)[C@@H](C)N(C)C(=O)[C@H](C)N(C)C(=O)[C@H](CC(C)C)NC(=O)[C@H](CC(C)C)N(C)C(=O)[C@H](C)N(C)C1=O yielded an IC50 [1] of over 130 µM and an IC50 [2] of 46000 nM.
CC[C@H](C)[C@H]1NC(=O)[C@@H]([C@H](O)C(C)C)NC(=O)[C@@H](C)N(C)C(=O)[C@H](C)N(C)C(=O)[C@H](CC(C)C)NC(=O)[C@H](C)N(C)C(=O)[C@H](C)N(C)C1=O showed an IC50 [1] of over 29 µM and an IC50 [2] of 1600 nM.
CC[C@H](C)[C@H]1NC(=O)[C@@H](COCc2ccccc2)NC(=O)[C@H](C)N(C)C(=O)[C@H](C)N(C)C(=O)[C@H](CC(C)C)NC(=O)[C@H](CC(C)C)N(C)C(=O)[C@H](C)N(C)C1=O gave an IC50 [1] of 89 µM and an IC50 [2] of 5900 nM.
CCCCCC[C@@H]1NC(=O)[C@H](CC(C)C)N(C)C(=O)[C@H](C)N(C)C(=O)[C@@H]([C@@H](C)CC)NC(=O)[C@@H]([C@H](O)C(C)C)NC(=O)[C@@H](C)N(C)C(=O)[C@H](C)N(C)C1=O showed an Activity [3] of 0.002, an IC50 [1] of over 130 µM and an IC50 [2] of over 130000 nM.
Molecule CC(C)C[C@@H]1NC(=O)[C@H](CC(C)C)N(C)C(=O)[C@H](C)N(C)C(=O)[C@@H](C)NC(=O)[C@@H]([C@H](O)C(C)C)NC(=O)[C@@H](C)N(C)C(=O)[C@H](C)N(C)C1=O has an Activity [3] of 0.002, an IC50 [1] of over 130 µM and an IC50 [2] of over 130000 nM.
In the case of CCCCCC[C@@H]1C(=O)N[C@H]([C@H](O)C(C)C)C(=O)N[C@H]([C@@H](C)CC)C(=O)N(C)[C@@H](C)C(=O)N(C)[C@@H](CC(C)C)C(=O)N[C@@H](CC(C)C)C(=O)N(C)[C@@H](C)C(=O)N1C, the IC50 [1] is reported as 0.066 µM and the IC50 [2] is reported as 16 nM.
Molecule CCCCCC[C@H]1C(=O)N(C)[C@@H](CC(C)C)C(=O)N[C@@H](CC(C)C)C(=O)N(C)[C@@H](C)C(=O)N(C)[C@H](C)C(=O)N[C@H]([C@H](O)C(C)C)C(=O)N[C@H]([C@@H](C)CC)C(=O)N1C has an IC50 [1] of over 12 µM and an IC50 [2] of 1100 nM.
CC[C@H](C)[C@H]1NC(=O)[C@@H](C)NC(=O)[C@@H](C)N(C)C(=O)[C@H](C)N(C)C(=O)[C@H](CC(C)C)NC(=O)[C@H](CC(C)C)N(C)C(=O)[C@H](C)N(C)C1=O showed an IC50 [1] of over 130 µM and an IC50 [2] of 14000 nM.
Molecule CCCCCC[C@H]1C(=O)N(C)[C@H](C)C(=O)N[C@H]([C@H](O)C(C)C)C(=O)N[C@H]([C@@H](C)CC)C(=O)N(C)[C@@H](C)C(=O)N(C)[C@@H](CC(C)C)C(=O)N[C@@H](CC(C)C)C(=O)N1C has an IC50 [1] of 0.96 µM and an IC50 [2] of 120 nM.
Work on CC[C@H](C)[C@H]1NC(=O)[C@@H]([C@H](O)C(C)C)NC(=O)[C@@H](C)N(C)C(=O)[C@H](C)N(C)C(=O)[C@H](C)NC(=O)[C@H](CC(C)C)N(C)C(=O)[C@H](C)N(C)C1=O yielded an Activity [3] of 0.002, an IC50 [1] of over 130 µM and an IC50 [2] of over 130000 nM.
In the case of CCCCCC[C@H]1C(=O)N[C@@H](CC(C)C)C(=O)N(C)[C@@H](C)C(=O)N(C)[C@H](C)C(=O)N[C@H]([C@H](O)C(C)C)C(=O)N[C@H]([C@@H](C)CC)C(=O)N(C)[C@@H](C)C(=O)N1C, the IC50 [1] is reported as 2.1 µM and the IC50 [2] is reported as 380 nM.
